Reference: patent US10801050B2, “Microorganism modified for the assimilation of levulinic acid” (priority 2015, dated 2020)

Experiment: In vitro validation of enzymatic activities: LC-MS/MS detection of levulinyl-CoA after incubation of purified proteins with substrates
Type: biochemical, Ralstonia eutropha
Details: purified proteins incubated with their respective substrates; reverse phase UPLC, negative ion MS/MS
Source text: To validate the activity of the candidates identified in Example 2 above with regard to reactions A1, A2 and B, their corresponding genes were cloned into the expression plasmid pPAL7 (Biorad®). In the case of QOKBZ9_CUPNH and Q0KC00_CUPNH, the corresponding genes were cloned in operon into the pPAL7. The resulting plasmids were transformed into E. coli BL21(DE3) strain.
The resulting strains were cultivated as described in patent application WO 2010/076324, incorporated herein by reference. Cells were collected by centrifugation and resuspended in potassium phosphate buffer 100 mM pH 7.6. Proteins were extracted by sonication and crude extracts were clarified by centrifugation. Recombinant protein purification was carried out using Biorad® PROfinity EXact cartridges according to the manufacturer's instructions. […]
Levulinyl-CoA was detected by reverse phase UPLC coupled to negative ion MS/MS, by searching for the transition from mass 864 (mass of levulinyl-CoA minus 1) to 408 (ion corresponding to the adenine part according to the protocol described by Zirrolli et al. 1994) as shown on FIG. 3.

In the case of “Q0KBZ9_CUPNH/Q0KC00_CUPNH: the 2 subunits of succinyl-CoA:3-ketoacid-coenzyme A transferase (EC 2.8.3.5), candidate for reaction A2”, the “detection of levulinyl-CoA in the reaction mixture (transition 864 to 408)” value is reported as “presence of levulinyl-CoA”.
